Results: PubChem BioAssay (NCI)
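Assay format: 96-well plates, 48-hour exposure. TGI is the concentration that stops growth completely.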

Key:
Experiment in all cases: NCI anticancer screen, dose series, 48 h
786-0 renal = system: 786-0 renal
A498 renal = system: A498 renal
A549 NSCLC = system: A549 NSCLC
ACHN renal = system: ACHN renal
BT-549 breast = system: BT-549 breast
CCRF-CEM leukemia = system: CCRF-CEM leukemia
COLO 205 colon = system: COLO 205 colon
DU-145 prostate = system: DU-145 prostate
EKVX NSCLC = system: EKVX NSCLC
HCC-2998 colon = system: HCC-2998 colon
HCT-116 colon = system: HCT-116 colon
HCT-15 colon = system: HCT-15 colon
HL-60(TB) leukemia = system: HL-60(TB) leukemia
HOP-62 NSCLC = system: HOP-62 NSCLC
HOP-92 NSCLC = system: HOP-92 NSCLC
HS 578T breast = system: HS 578T breast
HT29 colon = system: HT29 colon
IGROV1 ovarian = system: IGROV1 ovarian
K-562 leukemia = system: K-562 leukemia
KM12 colon = system: KM12 colon
LOX IMVI melanoma = system: LOX IMVI melanoma
M14 melanoma = system: M14 melanoma
MALME-3M melanoma = system: MALME-3M melanoma
MCF7 breast = system: MCF7 breast
MDA-MB-231 breast = system: MDA-MB-231 breast
MDA-N = system: MDA-N
MOLT-4 leukemia = system: MOLT-4 leukemia
NCI-H23 lung = system: NCI-H23 lung
NCI-H460 lung = system: NCI-H460 lung
NCI-H522 lung = system: NCI-H522 lung
NCI/ADR-RES ovarian = system: NCI/ADR-RES ovarian
OVCAR-3 ovarian = system: OVCAR-3 ovarian
OVCAR-4 ovarian = system: OVCAR-4 ovarian
OVCAR-5 ovarian = system: OVCAR-5 ovarian
OVCAR-8 ovarian = system: OVCAR-8 ovarian
PC-3 prostate = system: PC-3 prostate
RPMI-8226 leukemia = system: RPMI-8226 leukemia
RXF 393 renal = system: RXF 393 renal
SF-268 CNS = system: SF-268 CNS
SF-295 CNS = system: SF-295 CNS
SF-539 CNS = system: SF-539 CNS
SK-MEL-28 melanoma = system: SK-MEL-28 melanoma
SK-OV-3 ovarian = system: SK-OV-3 ovarian
SN12C renal = system: SN12C renal
SNB-19 CNS = system: SNB-19 CNS
SNB-75 CNS = system: SNB-75 CNS
SR leukemia = system: SR leukemia
SW-620 colon = system: SW-620 colon
T-47D breast = system: T-47D breast
TK-10 renal = system: TK-10 renal
U251 CNS = system: U251 CNS
UACC-257 melanoma = system: UACC-257 melanoma
UACC-62 melanoma = system: UACC-62 melanoma
UO-31 renal = system: UO-31 renal

O=C(/C=C/c1ccc(Cl)cc1)c1ccc(Cl)s1
TGI (786-0 renal): 90.9 µM | TGI (A498 renal): > 100 µM | TGI (A549 NSCLC): > 100 µM | TGI (ACHN renal): > 100 µM | TGI (BT-549 breast): 80.7 µM | TGI (CCRF-CEM leukemia): 83.7 µM | TGI (COLO 205 colon): > 100 µM | TGI (DU-145 prostate): > 100 µM | TGI (EKVX NSCLC): > 100 µM | TGI (HCC-2998 colon): 47.3 µM | TGI (HCT-116 colon): 22.4 µM | TGI (HCT-15 colon): > 100 µM | TGI (HL-60(TB) leukemia): > 100 µM | TGI (HOP-62 NSCLC): > 100 µM | TGI (HOP-92 NSCLC): > 100 µM | TGI (HS 578T breast): > 100 µM | TGI (HT29 colon): > 100 µM | TGI (IGROV1 ovarian): > 100 µM | TGI (K-562 leukemia): > 100 µM | TGI (KM12 colon): > 100 µM | TGI (LOX IMVI melanoma): 26.2 µM | TGI (M14 melanoma): > 100 µM | TGI (MALME-3M melanoma): > 100 µM | TGI (MCF7 breast): 44.6 µM | TGI (MDA-MB-231 breast): > 100 µM | TGI (MDA-N): 90.2 µM | TGI (MOLT-4 leukemia): > 100 µM | TGI (NCI-H23 lung): > 100 µM | TGI (NCI-H460 lung): > 100 µM | TGI (NCI-H522 lung): > 100 µM | TGI (NCI/ADR-RES ovarian): > 100 µM | TGI (OVCAR-3 ovarian): > 100 µM | TGI (OVCAR-4 ovarian): > 100 µM | TGI (OVCAR-5 ovarian): > 100 µM | TGI (OVCAR-8 ovarian): > 100 µM | TGI (PC-3 prostate): > 100 µM | TGI (RPMI-8226 leukemia): 80.1 µM | TGI (RXF 393 renal): 85.8 µM | TGI (SF-268 CNS): > 100 µM | TGI (SF-295 CNS): > 100 µM | TGI (SF-539 CNS): > 100 µM | TGI (SK-MEL-28 melanoma): > 100 µM | TGI (SK-OV-3 ovarian): > 100 µM | TGI (SN12C renal): > 100 µM | TGI (SNB-19 CNS): > 100 µM | TGI (SNB-75 CNS): > 100 µM | TGI (SR leukemia): > 100 µM | TGI (SW-620 colon): 55 µM | TGI (T-47D breast): > 100 µM | TGI (TK-10 renal): > 100 µM | TGI (U251 CNS): > 100 µM | TGI (UACC-257 melanoma): > 100 µM | TGI (UACC-62 melanoma): 93 µM | TGI (UO-31 renal): > 100 µM
